The results in this text go back to PMC11477482 (Molecules, 2024).

A short description of series [1]: Stability in metal solutions, pH 5 (UV-vis absorbance). Format: physicochemical. The protocol:
Five independent metal solutions (100 µM) were prepared in a buffer at pH 5, in triplicate. To the compound solutions, a volume of metal solutions was added to a final proportion of 1:1. The stability in the presence of different metals was analyzed at specific time points. The solutions were stored at room temperature in the dark. Aliquots of 3.00 mL were transferred to quartz cuvettes at specific time points to measure their absorbance using UV–vis spectrophotometry. Solutions of each metal were used as blanks.

Series [2] deals with THP-1 cells (DNFB-induced CD54 and CD86 expression). Put plainly: Inhibition of THP-1 maturation induced by the allergen DNFB (anti-allergic activity). Format: cell-based, human. The note with it: DNFB 8 µM. The protocol:
The human keratinocytes (HaCaT, CLS 300493, Eppelheim, Germany) cell line was cultured with Dulbecco’s Modified Eagle’s Medium (DMEM) (Sigma-Aldrich, St. Louis, MO, USA), supplemented with 10% (v/v) of heat-inactivated fetal bovine serum (FBS), 1% (v/v) antibiotic solution (from a 10,000 U/mL penicillin and 10,000 μg/mL streptomycin stock) (Gibco, Carlsbad, CA, USA), 3.7 g/L sodium bicarbonate, and 1 mM sodium pyruvate (Sigma-Aldrich, St. Louis, MO, USA). The cell culture of keratinocytes was detached with EDTA solution 1X (Sigma-Aldrich, St. Louis, MO, USA) when the cells reached 70–80% confluence in cell culture flasks. The mouse macrophage cell line (RAW 264.7, ATCC TIB-71, Manassas, VA, USA) was cultured in DMEM supplemented with 10% (v/v) non-inactivated FBS, 1% (v/v) antibiotic solution, 1.5 g/L sodium bicarbonate, and 1 mM sodium pyruvate. Macrophages were mechanically detached with a cell scraper and subcultured in (1:10) proportion of cellular suspension to a final volume of DMEM. The human monocytic cell line THP-1 (ATCC® TIB-202™, American Type Culture Collection, Manassas, VA, USA) was cultivated in RPMI 1640 supplemented with 10% inactivated FBS, 25 mM (D)-glucose, 10 mM HEPES, 1 mM sodium pyruvate, 100 U/mL penicillin, and 100 μg/mL streptomycin, and maintained at a cell density of 0.4 × 10^6 cells/mL. Cells were subcultured every 2 or 3 days and maintained in culture for 2–3 months, according to ATCC® instructions.
Following OECD guidelines, researchers utilized the THP-1 human monocyte cell line as a substitute for dendritic cells (DCs) to assess skin sensitization potential. Adapting OECD Test Guideline No. 442E [24], cell density was adjusted to 5.0 × 10^5 cells/mL and allowed to stabilize overnight at 37 °C. Then, 1.5 mL/well of cell suspension was added to a 12-well plate, and solutions of AA, AAG, and AAGS (500 µM) were applied. After 1 h of pre-incubation, a solution of DNFB was added (8 µM), and the cells were further incubated for 24 h. Afterwards, the cells were centrifuged at 300× g for 5 min, the supernatant was discarded, and the cell pellet was washed with PBS containing 1% FBS (2 × 1 mL) and centrifuged. The cell pellet was resuspended in 1 mL of PBS/1% FBS and 200 µL were collected in two microtubes: 100 µL for the unstained (UNST) and 100 µL for the stained (CD5486) conditions. For each stained condition, anti-CD54-APC and anti-CD86-Alexa Fluor 488 (BioLegend, London, UK) were added, and the cells were incubated for 30 min at 4 °C, protected from light. Then, cells were washed twice with 1 mL PBS/1% FBS solution and centrifuged. The cell pellet was further resuspended in 100 µL of PBS and analyzed by flow cytometry using a BD Accuri™ C6 cytometer (San Jose, CA, USA).
CD86 and CD54 levels were analyzed by flow cytometry using the acquisition channels FL1 and FL4. Mitochondrial O2^− production was measured by flow cytometry using the acquisition channel FL2. The relative fluorescence intensity (RFI) of CD86 and CD54 (THP-1 maturation assay) and MitoSOX (mitochondrial antioxidant activity) in the control and chemical-treated cells, based on the geometric mean fluorescence intensity (MFI), was calculated according to the following equation: RFI=MFI of chemical treated cells−MFI of chemical treated unstained cells/MFI of control treated cells−MFI of control unstained cells ×100
The results of at least three independent experiments were represented as a percentage of the control RFI, which was assumed to be 100%.

[3] abbreviates: compound 500 µM, 1 h pre-incubation, 24 h, mean ± SEM.

In series [1] (pH 5, Cu(II), Fe(II), and Fe(III)), `O=C1O[C@H]([C@@H](O)CO)C(O)=C1O` [AA, Ascorbic acid] had a loss of absorbance of over 80%. Moreover, the “anti-allergic profile regarding CD86” value in series [2] (500 µM) is “exhibited anti-allergic profile”.
Consider `O=C1O[C@H]([C@@H](O)CO)C(O)=C1O[C@H]1O[C@H](CO)[C@@H](O)[C@H](O)[C@H]1O` [AAG, 2-O-α-D-glucopyranosyl-L-ascorbic acid], for which the loss of absorbance in series [1] (pH 5, Fe(III) and Cu(II), at the end of 1 d) is recorded as under 30%. The “RFI of CD54 expression, DNFB-induced maturation” value in series [2] (setting [3]) is listed as 995.78% ± 80.51%.
In the case of `O=C1OC(C(COS(=O)(=O)O)OS(=O)(=O)O)C(OS(=O)(=O)O)=C1OC1OC(COS(=O)(=O)O)C(OS(=O)(=O)O)C(OS(=O)(=O)O)C1OS(=O)(=O)O` [AAGS, 2-O-α-D-glucopyranosyl-L-ascorbic acid persulfate], the loss of absorbance in series [1] (pH 5, Ca(II), Cu(II), and Fe(III), after one day) was over 50%. In series [2] (500 µM), the “anti-allergic profile regarding CD86” value is reported as “exhibited anti-allergic profile” and the “inhibition of DNFB-induced maturation of THP-1 cells” value was “anti-allergic activity”. Further, in series [2] (setting [3]), the “RFI of CD54 expression, DNFB-induced maturation” value is 986.89% ± 80.51% and the “RFI of CD86 expression, DNFB-induced maturation” value is 168.90% ± 16.30%.
